In article PMC6017357, “In Vitro Inhibitory Effects of Synthetic Cannabinoid EAM-2201 on Cytochrome P450 and UDP-Glucuronosyltransferase Enzyme Activities in Human Liver Microsomes” (Molecules : A Journal of Synthetic Chemistry and Natural …, 2018):

Target: CYP3A4 (Homo sapiens, UniProt P08684)
Test: CYP3A4-mediated midazolam 1′-hydroxylation in human liver microsomes (IC50 and time-dependent inhibition)
Type: in vitro ADME
Parameters: from tissue; host or cells: ultrapooled human liver microsomes
Procedure: The inhibitory potential (IC50 values) of EAM-2201 on CYP1A2, CYP2A6, CYP2C8, CYP2C9, CYP2C19, CYP2D6 and CYP3A4 were evaluated using ultrapooled human liver microsomes and a cocktail of seven CYP substrates followed by LC-tandem mass spectrometry (LC-MS/MS) as previously described. Each incubation mixture was prepared in a total volume of 100 µL as follows: pooled human liver microsomes (5.2 pmol CYP), 1.0 mM NADPH, 10 mM magnesium chloride, 50 mM potassium phosphate buffer (pH 7.4), various concentrations of EAM-2201 in DMSO (final concentrations of 0.1–50 µM, 0.5% DMSO) and a cocktail of seven CYP probe substrates in 50% acetonitrile (0.5% acetonitrile), including 50 µM phenacetin, 2.5 µM coumarin, 2.0 µM amodiaquine, 10 µM diclofenac, 100 µM [S]-mephenytoin, 5 µM bufuralol and 2.5 µM midazolam in 50% acetonitrile. After a 3-min preincubation at 37 °C, the reactions were initiated by adding NADPH and incubation proceeded for 15 min at 37 °C in a shaking water bath. The reactions were stopped by adding 100 µL of ice-cold methanol containing internal standards (^13C2,^15N-acetaminophen for acetaminophen and N-desethylamodiaquine; d9-1′-hydroxybufuralol for 4′-hydroxydiclofenac, 7-hydroxycoumarin, 4′-hydroxymephenytoin, 1′-hydroxybufuralol and 1′-hydroxy-midazolam). The incubation mixtures were centrifuged at 13,000× g for 4 min at 4 °C and 50 µL of each supernatant was diluted in 50 µL of water. Aliquots (5 µL) of the diluted supernatants were analyzed using LC-MS/MS. All assays were performed in triplicate and the mean values were used in calculations. […] Each reaction was initiated by adding the seven-CYP probe substrate cocktail described above.
The time-dependent inhibitory effects of EAM-2201 on CYP2C8, CYP2C9, CYP2C19 and CYP3A4 activities in ultrapooled human liver microsomes were evaluated using time- and concentration-dependent inhibition assays. Ultrapooled human liver microsomes (26.0 pmol CYP) were pre-incubated with various concentrations of EAM-2201 in DMSO (0.5% DMSO) in 50 mM potassium phosphate buffer (pH 7.4) in the presence of NADPH for predetermined time periods: 5–15 min for CYP2C8 activity, 5–20 min for CYP2C9 activity and 15–40 min for CYP2C19 and CYP3A4 activities. […] Aliquots (5 µL) of the diluted supernatants were analyzed using LC-MS/MS.
The metabolites formed from CYP substrates were simultaneously quantified using our previously described LC-MS/MS method. […]

Chain of CYP3A4 (P08684 whole entry): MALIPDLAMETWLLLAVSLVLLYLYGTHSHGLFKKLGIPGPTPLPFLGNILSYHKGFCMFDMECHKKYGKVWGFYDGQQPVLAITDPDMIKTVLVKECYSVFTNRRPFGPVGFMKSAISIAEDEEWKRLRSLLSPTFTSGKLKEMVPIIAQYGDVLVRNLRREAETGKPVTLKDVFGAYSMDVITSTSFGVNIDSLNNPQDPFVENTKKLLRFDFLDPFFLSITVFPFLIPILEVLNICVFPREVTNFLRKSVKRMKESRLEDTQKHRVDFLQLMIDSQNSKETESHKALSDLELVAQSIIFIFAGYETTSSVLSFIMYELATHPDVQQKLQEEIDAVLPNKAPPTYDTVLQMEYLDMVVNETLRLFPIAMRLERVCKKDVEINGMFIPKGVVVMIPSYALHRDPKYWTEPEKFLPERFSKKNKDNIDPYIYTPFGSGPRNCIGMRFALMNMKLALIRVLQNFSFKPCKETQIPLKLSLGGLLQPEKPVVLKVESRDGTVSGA

In the case of `CCc1ccc(C(=O)c2cn(CCCCCF)c3ccccc23)c2ccccc12` [EAM-2201, (4-ethyl-1-naphthalenyl)[1-(5-fluoropentyl)-1H-indol-3-yl]-methanone], the IC50 is reported as 17.6 µM, the “kinact/Ki value for CYP3A4” value (human liver microsomes) is reported as 6.1 mL/µmol/min and the kinact (human, ultrapooled human liver microsomes, pH 7.4, probe midazolam (2 µM), 1′-hydroxylation, read-out: kinact, time-dependent inhibition of CYP3A4 midazolam 1′-hydroxylase (converted)) is reported as 0.000417 s⁻¹. The “inhibition of CYP3A4-mediated midazolam 1′-hydroxylation” value (up to 50 µM, without 30-min preincubation, human liver microsomes) was “negligibly inhibited”.
